What all share (assay type): biochemical
One assay concerns the target T1, Human HDAC4 (Homo sapiens, UniProt P56524).
T1 construct: Amino acids 627-1085 with N-terminal GST tag, MW=75.2 kDa; GST (N); purchased BioMol, Hamburg, Germany; host or cells: baculovirus expression system
The assay can be described thus: In vitro HDAC4 inhibition, fluorogenic substrate. The note with it: read-out: IC50 (μM) HDAC-4. The procedure:
(§1) In Vitro Inhibitory Activity of Histone Deacetylase: Human Isoforms HDAC1, 2, 3, 4, 5, 6, 7, 8, 9, 10 and 11 and HeLa Cell Line Nuclear Extract (IC50 Data)
(§2) All HDAC assays were performed using acetylated AMC-labeled peptide substrate: • Substrate for isoforms HDAC1, 2, 3, 6, 10, 11 and HeLa nuclear extract assays: Acetylated fluorogenic peptide from p53 residues 379-382 (RHKKAc). • Substrate for isoforms HDAC 4, 5, 7, 9: Fluorogenic Boc-L-Lys(ε-trifluoroacetyl)-AMC. • Substrate for HDAC8 assays: Acetylated fluorogenic peptide from p53 residues 379-382 (RHKAcKAc).
(§3) 50 μM of substrate peptide (see ‘substrate peptides’ section above) and an optimal concentration of the corresponding enzyme (see ‘enzymes’ section above) in the assay buffer and 1% final concentration of DMSO were incubated in the presence of gradient concentrations of inhibitors (10-dose IC50 mode with 3-fold serial dilution) at 30° C. for 2 h. The reactions were carried out in a 96-well microplate for fluorometry in a 50 μl reaction volume. After the deacetylation reaction, Fluor-de-Lys-Developer (BioMol Cat. # KI-105) was added to each well to digest the deacetylated substrate, thus producing the fluorescent signal. The reaction was allowed to develop for 45 minutes at 30° C. with 5% CO2; then the fluorescent signal was measured with an excitation wavelength at 360 nm and an emission wavelength at 460 nm in a microplate-reading fluorometer (GeminiXS; Molecular Devices, Sunnyvale, Calif.). A curve of Deacetylated Standard (Biomol, Cat. # KI-142; made from 100 μM with 1:2 dilution and 10-doses, 6 μl) allowed the conversion of fluorescent signal into micromoles of deacetylated product. All experiments were performed in triplicate. IC50 was calculated by fitting the experimental data to a dose-response curve. DMSO was used as negative control; Trichostatin A (Biomol Cat. # GR-309) was used as positive control inhibitor.

For the next assay, the target named is T2, Human HDAC8 (Homo sapiens, UniProt Q9BY41).
T2 construct: Full length, MW=42 kDa, expressed in an E. coli expression system; purchased BioMol SE-145; host or cells: E. coli
T2 sequence (Q9BY41 1-377): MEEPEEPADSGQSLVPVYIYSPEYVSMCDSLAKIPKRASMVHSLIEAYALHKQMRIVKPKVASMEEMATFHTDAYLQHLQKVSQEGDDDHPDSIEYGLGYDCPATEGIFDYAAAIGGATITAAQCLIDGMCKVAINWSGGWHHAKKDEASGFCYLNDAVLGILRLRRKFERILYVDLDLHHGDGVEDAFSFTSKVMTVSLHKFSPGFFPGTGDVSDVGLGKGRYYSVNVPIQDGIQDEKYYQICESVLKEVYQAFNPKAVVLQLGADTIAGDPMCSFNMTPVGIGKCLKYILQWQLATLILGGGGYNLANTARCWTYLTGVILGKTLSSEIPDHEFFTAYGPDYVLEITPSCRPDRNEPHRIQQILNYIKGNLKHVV
The experiment in a line: In vitro HDAC8 inhibition, fluorogenic peptide substrate. The note with it: read-out: IC50 (μM) HDAC-8. As for the experimental part: as §1, §2, §3

In a further assay the target is T3, Human HDAC9 (Homo sapiens, UniProt Q9UKV0).
T3 construct: Amino acids 604-1066 with C-terminal His tag, MW=50.7 kDa; His (C); purchased BioMol, Hamburg, Germany; host or cells: baculovirus expression system
T3 sequence (Q9UKV0 604-1066 isoform Q9UKV0-5): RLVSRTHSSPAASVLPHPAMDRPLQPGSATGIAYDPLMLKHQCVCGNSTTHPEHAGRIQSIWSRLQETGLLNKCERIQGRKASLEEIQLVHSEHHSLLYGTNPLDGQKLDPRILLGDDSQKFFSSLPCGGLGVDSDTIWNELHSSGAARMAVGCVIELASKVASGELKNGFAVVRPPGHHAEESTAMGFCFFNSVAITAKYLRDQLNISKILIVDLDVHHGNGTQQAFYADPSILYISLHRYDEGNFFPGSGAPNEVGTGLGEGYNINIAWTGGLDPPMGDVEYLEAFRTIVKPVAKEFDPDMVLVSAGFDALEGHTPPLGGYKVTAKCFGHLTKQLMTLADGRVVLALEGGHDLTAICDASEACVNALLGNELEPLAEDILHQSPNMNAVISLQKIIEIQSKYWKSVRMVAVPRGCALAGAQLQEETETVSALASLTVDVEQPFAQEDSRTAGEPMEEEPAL
The assay can be described thus: In vitro HDAC9 inhibition, fluorogenic substrate. The following applies: read-out: IC50 (μM) HDAC-9. As for the experimental part:
as §1, §2, §3

Each structure is given as a SMILES string.

T1 sequence (P56524 627-1084 limits assumed): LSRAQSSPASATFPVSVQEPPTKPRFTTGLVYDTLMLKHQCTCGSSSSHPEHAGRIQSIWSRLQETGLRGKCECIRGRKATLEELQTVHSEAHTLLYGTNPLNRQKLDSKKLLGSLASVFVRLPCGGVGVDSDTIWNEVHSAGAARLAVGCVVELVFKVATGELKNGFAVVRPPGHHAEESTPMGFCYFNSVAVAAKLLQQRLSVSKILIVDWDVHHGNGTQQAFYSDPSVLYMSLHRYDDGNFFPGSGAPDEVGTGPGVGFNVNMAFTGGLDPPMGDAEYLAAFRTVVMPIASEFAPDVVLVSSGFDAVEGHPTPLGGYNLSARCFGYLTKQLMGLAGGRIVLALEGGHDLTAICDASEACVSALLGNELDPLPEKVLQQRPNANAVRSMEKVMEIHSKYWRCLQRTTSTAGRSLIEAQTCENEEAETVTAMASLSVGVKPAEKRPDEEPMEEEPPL

In general, IC50 refers to the concentration that gives 50% inhibition. Turning to `O=C(CCCCCNC(=O)c1c2c(nc3ccccc13)CCCC2)NO` [Example 10, N-[6-(hydroxyamino)-6-oxohexyl]-1,2,3,4-tetrahydroacridine-9-carboxamide], on Human HDAC4, the IC50 was greater than 5 µM.
Turning to `O=C(CCCCCCNc1c2c(nc3cnccc13)CCCC2)NO` [Example 8, N-hydroxy-7-[(6,7,8,9-tetrahydrobenzo[b][1,7]naphthyridin-5-yl)amino]heptanamide], the half-inhibitory concentration (IC50) is 1.09 µM on Human HDAC8, greater than 5 µM on Human HDAC4 and greater than 5 µM at Human HDAC9.
For `O=C(CCCCCCNc1c2c(nc3ncccc13)CCCC2)NO` [Example 7, N-hydroxy-7-[(6,7,8,9-tetrahydrobenzo[b][1,8]naphthyridin-5-yl)amino]heptanamide], the IC50 is 1.44 µM at Human HDAC8, greater than 5 µM at Human HDAC4 and greater than 5 µM on Human HDAC9.
On to `O=C(CCCCCNc1c2c(nc3ccccc13)CCCC2)NO` [Example 1, N-hydroxy-6-[(1,2,3,4-tetrahydroacridin-9-yl)amino]hexanamide], for which the IC50 is 0.59 µM on Human HDAC8, 6.19 µM at Human HDAC4 and 2.47 µM on Human HDAC9.
On to `O=C(CCCCCCNC(=O)c1c2c(nc3ccccc13)CCCC2)NO` [Example 11, N-[7-(hydroxyamino)-7-oxoheptyl]-1,2,3,4-tetrahydroacridine-9-carboxamide], for which the figures for the half-maximal inhibitory concentration (IC50) on Human HDAC8, at Human HDAC4 and on Human HDAC9 were 0.21 µM, greater than 5 µM and 3.17 µM, respectively.
`COc1cccc2c(NCCCCCCC(=O)NO)c3c(nc12)CCCC3` [Example 5, N-hydroxy-7-[(5-methoxy-1,2,3,4-tetrahydroacridin-9-yl)amino]heptanamide]: the 50% inhibitory concentration (IC50) was 1.52 µM on Human HDAC8, greater than 5 µM on Human HDAC4 and greater than 5 µM at Human HDAC9.
As to `O=C(CCCCCCNc1c2c(nc3ccccc13)CCC2)NO` [Example 3, 7-[(2,3-dihydro-1H-cyclopenta[b]quinolin-9-yl)amino]-N-hydroxyheptanamide], the half-inhibitory concentration (IC50) at Human HDAC8 is 1.28 µM; on Human HDAC4 it was greater than 5 µM; on Human HDAC9, greater than 5 µM.
Consider `O=C(CCCCCCNc1c2c(nc3ccccc13)CCCCC2)NO` [Example 4, N-hydroxy-7-[(7,8,9,10-tetrahydro-6H-cyclohepta[b]quinolin-11-yl)amino]heptanamide], for which the IC50 at Human HDAC8 is 0.84 µM; at Human HDAC4 it was greater than 5 µM; at Human HDAC9, greater than 5 µM.
Take `O=C(CCCCCCNc1c2c(nc3ccccc13)CCCC2)NO` [Example 2, N-hydroxy-7-[(1,2,3,4-tetrahydroacridin-9-yl)amino]heptanamide]: the values for the half-inhibitory concentration (IC50) at Human HDAC8, on Human HDAC4 and at Human HDAC9 were 0.53 µM, greater than 5 µM and 1.57 µM, respectively.

The values above are taken from patent publication US20160122340A1, “HISTONE DEACETYLASE INHIBITORS BASED ON DERIVATIVES OF TRICYCLIC POLYHYDROACRIDINE AND ANALOGS POSSESSING FUSED SATURATED FIVE-AND-SEVEN-MEMBERED RINGS” (QUIMATRYX, S.L., priority 2013, published 2016).
